Results from the supplement of paper PMC11451515.

Test system: SEM cells
Test: cell viability relative to DMSO control; higher = less cytotoxic
Conditions: 48 h
Outline: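 Three leukemia lines were tested: NOMO1 and SEM at 500 cells/well and P12-Ichikawa at 1000 cells/well. Each was adapted for at least four passages in each medium and seeded in 5 μl in 1536-well plates, and library compounds in DMSO were pin-dosed from 47 μM to 0.79 nM in 11 threefold steps. After 48 h at 37°C, CellTiter-Glo One luminescence was read. Viability is a percentage relative to DMSO wells on each plate, with cell-free wells as background.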

[1] = HPLM + 10% dialyzed FBS, 0.000781 µM
[2] = HPLM + 10% dialyzed FBS, 0.00234 µM
[3] = HPLM + 10% dialyzed FBS, 0.00702 µM
[4] = HPLM + 10% dialyzed FBS, 0.0211 µM
[5] = HPLM + 10% dialyzed FBS, 0.0632 µM
[6] = HPLM + 10% dialyzed FBS, 0.19 µM
[7] = HPLM + 10% dialyzed FBS, 0.569 µM
[8] = HPLM + 10% dialyzed FBS, 1.71 µM
[9] = HPLM + 10% dialyzed FBS, 5.12 µM
[10] = HPLM + 10% dialyzed FBS, 15.4 µM
[11] = HPLM + 10% dialyzed FBS, 46.1 µM
[12] = RPMI 5 mM glucose + 10% FBS, 0.000781 µM
[13] = RPMI 5 mM glucose + 10% FBS, 0.00234 µM
[14] = RPMI 5 mM glucose + 10% FBS, 0.00702 µM
[15] = RPMI 5 mM glucose + 10% FBS, 0.0211 µM
[16] = RPMI 5 mM glucose + 10% FBS, 0.0632 µM
[17] = RPMI 5 mM glucose + 10% FBS, 0.19 µM
[18] = RPMI 5 mM glucose + 10% FBS, 0.569 µM
[19] = RPMI 5 mM glucose + 10% FBS, 1.71 µM
[20] = RPMI 5 mM glucose + 10% FBS, 5.12 µM
[21] = RPMI 5 mM glucose + 10% FBS, 15.4 µM
[22] = RPMI 5 mM glucose + 10% FBS, 46.1 µM
[23] = RPMI 5 mM glucose + 10% dialyzed FBS, 0.000781 µM
[24] = RPMI 5 mM glucose + 10% dialyzed FBS, 0.00234 µM
[25] = RPMI 5 mM glucose + 10% dialyzed FBS, 0.00702 µM
[26] = RPMI 5 mM glucose + 10% dialyzed FBS, 0.0211 µM
[27] = RPMI 5 mM glucose + 10% dialyzed FBS, 0.0632 µM
[28] = RPMI 5 mM glucose + 10% dialyzed FBS, 0.19 µM
[29] = RPMI 5 mM glucose + 10% dialyzed FBS, 0.569 µM
[30] = RPMI 5 mM glucose + 10% dialyzed FBS, 1.71 µM
[31] = RPMI 5 mM glucose + 10% dialyzed FBS, 5.12 µM
[32] = RPMI 5 mM glucose + 10% dialyzed FBS, 15.4 µM
[33] = RPMI 5 mM glucose + 10% dialyzed FBS, 46.1 µM

Molecule `FC1=CC=C(CN2\C=C/C=C(/C(=O)N[C@@H](COC3=CC4=C(NC(=O)N4)C=C3)C5=CC=CC=C5)C2=O)C=C1F` has a cell viability [1] of 79.5%, a cell viability [2] of 85.6% and a cell viability [3] of 69.3%. For the same molecule, the cell viability [4] was 94.2%, the cell viability [5] was 93.8% and the cell viability [6] was 98.8%. It also gave a cell viability [7] of 93.3%, a cell viability [8] of 77.5% and a cell viability [9] of 61%. For the same molecule, the cell viability [10] was 54.6%, the cell viability [11] was 41.8% and the cell viability [12] was 93.6%. It also gave a cell viability [13] of 108%, a cell viability [14] of 85.9% and a cell viability [15] of 119%. It also gave a cell viability [16] of 109%, a cell viability [17] of 108% and a cell viability [18] of 93.8%. It also gave a cell viability [19] of 90%, a cell viability [20] of 57.1% and a cell viability [21] of 59.4%. The cell viability [22] was 38.5%, the cell viability [23] was 79.8% and the cell viability [24] was 91.2%. It also gave a cell viability [25] of 78.5%, a cell viability [26] of 93.4% and a cell viability [27] of 84.5%. It also gave a cell viability [28] of 93.1%, a cell viability [29] of 81% and a cell viability [30] of 76.9%. It also gave a cell viability [31] of 57.4%, a cell viability [32] of 49.8% and a cell viability [33] of 44.3%.
For `CN(C)/[N+]([O-])=N/Oc1cc(ON[N+](=O)N2CCN(C(=O)c3cc(Cc4n[nH]c(=O)c5ccccc45)ccc3F)CC2)c([N+](=O)[O-])cc1[N+](=O)[O-]`, the cell viability [1] was 94%, the cell viability [2] was 97.2% and the cell viability [3] was 103%. It also gave a cell viability [4] of 97.7%, a cell viability [5] of 100% and a cell viability [6] of 58.3%. The cell viability [7] was 101%, the cell viability [8] was 116% and the cell viability [9] was 109%. For the same molecule, the cell viability [10] was 110%, the cell viability [11] was 105% and the cell viability [12] was 99%. It also gave a cell viability [13] of 101%, a cell viability [14] of 93.1% and a cell viability [15] of 93.5%. For the same molecule, the cell viability [16] was 100%, the cell viability [17] was 55.9% and the cell viability [18] was 98.2%. For the same molecule, the cell viability [19] was 109%, the cell viability [20] was 111% and the cell viability [21] was 113%. It also gave a cell viability [22] of 103%, a cell viability [23] of 89.9% and a cell viability [24] of 79.2%. The cell viability [25] was 112%, the cell viability [26] was 103% and the cell viability [27] was 109%. It also gave a cell viability [28] of 40.1%, a cell viability [29] of 137% and a cell viability [30] of 122%. The cell viability [31] was 106%, the cell viability [32] was 100% and the cell viability [33] was 91.8%.
Work on `CCCNCC(O)COc1ccccc1C(=O)CCc1ccccc1` (stereo unspecified) yielded a cell viability [1] of 86.5%, a cell viability [2] of 86.5% and a cell viability [3] of 117%. The cell viability [4] was 93.3%, the cell viability [5] was 98.7% and the cell viability [6] was 54.2%. The cell viability [7] was 105%, the cell viability [8] was 112% and the cell viability [9] was 117%. It also gave a cell viability [10] of 108%, a cell viability [11] of 99.6% and a cell viability [12] of 98.8%. It also gave a cell viability [13] of 95.1%, a cell viability [14] of 98.1% and a cell viability [15] of 104%. It also gave a cell viability [16] of 107%, a cell viability [17] of 60.4% and a cell viability [18] of 125%. For the same molecule, the cell viability [19] was 109%, the cell viability [20] was 124% and the cell viability [21] was 116%. It also gave a cell viability [22] of 97.2%, a cell viability [23] of 101% and a cell viability [24] of 85.1%. It also gave a cell viability [25] of 109%, a cell viability [26] of 90.5% and a cell viability [27] of 102%. The cell viability [28] was 43.6%, the cell viability [29] was 118% and the cell viability [30] was 104%. It also gave a cell viability [31] of 116%, a cell viability [32] of 115% and a cell viability [33] of 110%.
For `NC1CCC(Nc2nc(Nc3ccc(C(=O)N4CCCCC4)cc3)c3ncn(-c4cccc(F)c4)c3n2)CC1` (stereo unspecified), the cell viability [1] was 91.7%, the cell viability [2] was 94.8% and the cell viability [3] was 95.2%. It also gave a cell viability [4] of 96.6%, a cell viability [5] of 102% and a cell viability [6] of 117%. For the same molecule, the cell viability [7] was 55%, the cell viability [8] was 59.1% and the cell viability [9] was 102%. The cell viability [10] was 128%, the cell viability [11] was 125% and the cell viability [12] was 110%. It also gave a cell viability [13] of 102%, a cell viability [14] of 104% and a cell viability [15] of 112%. For the same molecule, the cell viability [16] was 103%, the cell viability [17] was 124% and the cell viability [18] was 75.9%. The cell viability [19] was 62.9%, the cell viability [20] was 100% and the cell viability [21] was 110%. It also gave a cell viability [22] of 90.1%, a cell viability [23] of 99.6% and a cell viability [24] of 99%. For the same molecule, the cell viability [25] was 100%, the cell viability [26] was 99.3% and the cell viability [27] was 106%. It also gave a cell viability [28] of 113%, a cell viability [29] of 64.6% and a cell viability [30] of 41.9%. The cell viability [31] was 98.6%, the cell viability [32] was 98.6% and the cell viability [33] was 88.9%.
Molecule `CO[C@H]1/C=C/O[C@@]2(C)Oc3c(C)c(O)c4c(O)c(c(/C=N/N5CCN(C)CC5)c(O)c4c3C2=O)NC(=O)/C(C)=C\C=C\[C@H](C)[C@H](O)[C@@H](C)[C@@H](O)[C@@H](C)[C@H](OC(C)=O)[C@@H]1C` has a cell viability [1] of 107%, a cell viability [2] of 121% and a cell viability [3] of 130%. It also gave a cell viability [4] of 126%, a cell viability [5] of 119% and a cell viability [6] of 121%. It also gave a cell viability [7] of 119%, a cell viability [8] of 113% and a cell viability [9] of 102%. The cell viability [10] was 96.1%, the cell viability [11] was 67% and the cell viability [12] was 62.7%. The cell viability [13] was 84.8%, the cell viability [14] was 87.1% and the cell viability [15] was 82.4%. For the same molecule, the cell viability [16] was 77.1%, the cell viability [17] was 78.6% and the cell viability [18] was 75.4%. For the same molecule, the cell viability [19] was 74.9%, the cell viability [20] was 55% and the cell viability [21] was 56%. It also gave a cell viability [22] of 23.5%, a cell viability [23] of 108% and a cell viability [24] of 104%. The cell viability [25] was 104%, the cell viability [26] was 103% and the cell viability [27] was 109%. The cell viability [28] was 108%, the cell viability [29] was 123% and the cell viability [30] was 111%. It also gave a cell viability [31] of 102%, a cell viability [32] of 90.4% and a cell viability [33] of 66.5%.
Molecule `Cn1cnc(-c2cc3nccc(Oc4ccc(NC(=S)NC(=O)Cc5ccccc5)cc4F)c3s2)c1` has a cell viability [1] of 53.6%, a cell viability [2] of 82.3% and a cell viability [3] of 67.1%. It also gave a cell viability [4] of 57.5%, a cell viability [5] of 46% and a cell viability [6] of 46.9%. For the same molecule, the cell viability [7] was 43.9%, the cell viability [8] was 30.5% and the cell viability [9] was 31.2%. The cell viability [10] was 32.4%, the cell viability [11] was 12.8% and the cell viability [12] was 82.5%. For the same molecule, the cell viability [13] was 94.7%, the cell viability [14] was 85.6% and the cell viability [15] was 68.4%. The cell viability [16] was 53.7%, the cell viability [17] was 66.1% and the cell viability [18] was 46.2%. The cell viability [19] was 38.2%, the cell viability [20] was 30.5% and the cell viability [21] was 24.8%. For the same molecule, the cell viability [22] was 2.88%, the cell viability [23] was 68.9% and the cell viability [24] was 63.1%. It also gave a cell viability [25] of 70%, a cell viability [26] of 43.8% and a cell viability [27] of 35.3%. For the same molecule, the cell viability [28] was 36%, the cell viability [29] was 35.3% and the cell viability [30] was 25.4%. It also gave a cell viability [31] of 24.7%, a cell viability [32] of 20.1% and a cell viability [33] of 4.88%.
`CCCC1=N[N](C)C2=C1\N=C(/NC2=O)C3=CC(=CC=C3OCC)[S+]([O-])(=O)N4CCN(C)CC4` showed a cell viability [1] of 44.2%, a cell viability [2] of 88.3% and a cell viability [3] of 87.9%. For the same molecule, the cell viability [4] was 94.3%, the cell viability [5] was 74% and the cell viability [6] was 88.4%. For the same molecule, the cell viability [7] was 79.8%, the cell viability [8] was 80.8% and the cell viability [9] was 87%. The cell viability [10] was 46.3%, the cell viability [11] was 2.85% and the cell viability [12] was 46.9%. It also gave a cell viability [13] of 108%, a cell viability [14] of 97.7% and a cell viability [15] of 85.9%. For the same molecule, the cell viability [16] was 66.6%, the cell viability [17] was 79.7% and the cell viability [18] was 74%. The cell viability [19] was 78%, the cell viability [20] was 86.9% and the cell viability [21] was 46.2%. The cell viability [22] was 32.2%, the cell viability [23] was 46.1% and the cell viability [24] was 94.2%. It also gave a cell viability [25] of 88.5%, a cell viability [26] of 87.4% and a cell viability [27] of 61.7%. For the same molecule, the cell viability [28] was 81.2%, the cell viability [29] was 89.9% and the cell viability [30] was 102%. For the same molecule, the cell viability [31] was 88.1%, the cell viability [32] was 61.9% and the cell viability [33] was 4.25%.
